From patent US20100256090A1, “Alginic Acid with Low Molecular Weight, Its Salts, Uses, Preparative Methods, Pharmaceutical Compositions and Foods” (priority 2007, published 2010)

What was measured:
[1] = system: Male Wister rats feed with high lipid diet; assay: Clinical Example 6: prevention of blood lipid increase in rats on high lipid diet; assay type: in vivo; details: conclusion from Table 7, one month
Method: This clinical example explains the effects of the low molecular weight alginate salt of the present invention and the effects of the low molecular weight alginate salt of the comparative example in preventing increase of blood lipid when they are added into high lipid diet.
Male Wister rats weighted from 180 to 200 g were randomly divided into 13 groups, 8 for each group, wherein one group was designated as a blank group and feed with normal diet, one group was designated as a control group and feed with a high lipid diet comprising 1 wt % of cholesterol, 0.5 wt % of cholate, 10 wt % of lard oil and 10 wt % of yolk, and the remaining groups were feed with the high lipid diet and were given through stomach the potassium alginate aqueous solution according to the present invention for three times every day such that the daily intake of potassium alginate for each rat reached […]. After one month of feeding, lipoprotein in serum, total cholesterol (TC), triglyeride (TG), high density lipoprotein cholesterol (HDL-C) and low density lipoprotein cholesterol as well as very low density lipoprotein cholesterol [(LDL+VLDL)-C] were measured using enzymatic methods commonly used in the clinic (for example, CHOD-PAP to measure TC and GPO-PAP to measure TG), and the results are shown in Table 7.

hypertension subjects [2] = assay: Clinical Example 7: blood pressure of hypertension subjects taking milk powder with potassium alginate; assay type: in vivo, human; details: conclusion from Table 8, one month use of milk powder
Method: This clinical example explains the effects of the low molecular weight alginate salt of the present invention and the effects of the low molecular weight alginate salt of the comparative example in reducing hypertension when they are added into milk powder.
Fresh milk containing 8 wt % of solid content was added with potassium alginate until the content of the potassium alginate reached 25 wt % in term of the solid content weight, the milk was then spray dried at 150° C. to obtain a milk powder.
Male and female hypertension subjects without other disease were selected, 48 for each sex, aged from 40 to 65 with an average age of 54, whose SBP(s) were from 145 to 155 mmHg and DBP(s) were from 120 to 125 mmHg, said SBP(s) and DBP(s) were measured in resting state. The subjects were randomly grouped, 8 subjects for each group, and took the milk power after infusing it, wherein the daily dose of potassium alginate reached 10 to 30 mg/Kg and the milk power was taken continuously for one month.

hypertension subjects [3] = assay: Clinical Example 1: blood pressure of hypertension subjects after oral granule or enteric capsule; assay type: in vivo, human
Excerpt: This clinical example explains the effects of the low molecular weight alginate salts of the present invention and the effects of the low molecular weight alginate salts of the comparative example in improving hypertension.
Male and female hypertension subjects without other disease were selected, 360 for each sex, aged from 38 to 62 with an average age of 48, whose systolic blood pressure (SBP)(s) were from 155 to 165 mmHg and diastolic blood pressure (DBP)(s) were from 100 to 125 mmHg, said SBP(s) and DBP(s) were measured in resting state. The subjects were randomly grouped, 30 subjects for each group, and orally took granule of low molecular weight potassium alginate or enteric capsule of alginic acid with low molecular weight 1 to 3 times per day with a daily dose of 50 to 200 mg/Kg according to Table 2, and blood pressures before and 24 hours after administration were measured. The granule of low molecular weight potassium alginate was prepared in the following way: potassium alginate was prepared using the alginic acid with low molecular weight according to examples 1 to 10 or comparative example 1, and then the potassium alginate was prepared into granule according to the method of example 11 or comparative example 2. The enteric capsule of alginic acid with low molecular weight was prepared according to the method of example 11 or comparative example 2. Criterion of therapeutical effect made by China Hypertension League was referred to, that is, the systolic blood pressure reduces by more than 15 mmHg and the diastolic blood pressure reduces by more than 10 mmHg 24 hours after the administration.

For “alginic acid with low molecular weight [Comparative Example 1]”, the “blood lipid increase preventing effect (in words)” value [1] was “inferior” and the “blood pressure reducing effect (in words)” value (hypertension subjects [2]) was “inferior”.

In the case of NS(=O)(=O)c1cc2c(cc1Cl)NCNS2(=O)=O [Positive Control, Hydrochlorothiazide], the effective rate (hypertension subjects [3]; effective: SBP reduces by more than 15 mmHg and DBP by more than 10 mmHg 24 hours after administration, oral) is reported as 70.1%, the “average SBP before administration” value (hypertension subjects [3]; first number of SBP/DBP, baseline, resting state, hypertension subjects, 30 per group) is reported as 162 mmHg and the “average SBP after administration 24 h” value (hypertension subjects [3]; first number of SBP/DBP, oral, 1 to 3 times per day, daily dose 50 to 200 mg/Kg per Table 2, 24 hours after administration) is reported as 121 mmHg. For the same compound, the “average DBP before administration” value (hypertension subjects [3]; second number of SBP/DBP, baseline, resting state, hypertension subjects, 30 per group) was 118 mmHg and the “average DBP after administration 24 h” value (hypertension subjects [3]; second number of SBP/DBP, oral, 1 to 3 times per day, daily dose 50 to 200 mg/Kg per Table 2, 24 hours after administration) was 95 mmHg.
